Among the data in patent publication US20080194654A1, “HYDROXY-SUBSTITUTED ARYL SULFAMIDE DERIVATIVES AND METHODS OF THEIR USE” (Wyeth, priority 2006, published 2008) are IC50 values, retold here.

What is called pIC50 is −log10 of the IC50, conventionally taken in molar units.

For this assay, the target named is hDAT (Homo sapiens, UniProt Q01959). Put plainly: Dopamine transporter (hDAT) membrane binding assay.

pIC50: −log10 of the molar value.

Sequence of hDAT (Q01959 whole entry): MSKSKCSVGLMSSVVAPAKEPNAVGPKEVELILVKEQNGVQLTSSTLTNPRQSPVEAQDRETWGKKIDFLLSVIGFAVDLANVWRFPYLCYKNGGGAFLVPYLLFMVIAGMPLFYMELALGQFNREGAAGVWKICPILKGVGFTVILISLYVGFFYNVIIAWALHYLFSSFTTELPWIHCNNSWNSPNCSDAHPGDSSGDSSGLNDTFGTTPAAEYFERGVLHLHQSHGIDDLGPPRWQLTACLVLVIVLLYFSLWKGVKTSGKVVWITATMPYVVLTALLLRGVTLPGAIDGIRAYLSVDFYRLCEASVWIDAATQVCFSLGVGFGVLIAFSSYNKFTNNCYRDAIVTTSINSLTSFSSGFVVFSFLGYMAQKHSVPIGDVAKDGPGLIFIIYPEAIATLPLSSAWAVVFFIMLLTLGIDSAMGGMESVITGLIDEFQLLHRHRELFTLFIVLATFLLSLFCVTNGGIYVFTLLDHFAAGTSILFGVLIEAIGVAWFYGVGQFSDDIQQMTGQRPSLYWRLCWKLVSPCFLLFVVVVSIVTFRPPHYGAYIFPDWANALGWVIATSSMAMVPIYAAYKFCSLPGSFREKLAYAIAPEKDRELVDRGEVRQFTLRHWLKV

With `CCNC[C@@H](O)CCN1c2ccccc2N(c2ccccc2F)S1(=O)=O`, the negative logarithm of the IC50 (pIC50) was < 6.00.
